Data published in ChEMBL document CHEMBL1132664, “C32-O-phenalkyl ether derivatives of the immunosuppressant ascomycin: a tether length study” (Bioorg Med Chem Lett, 1999).

What was measured:
[1] = species: Mus musculus; experiment: In vitro immunosuppressive activity in murine splenic T cells; type: functional, cell-based; conditions: T-cell
[2] = target: Peptidyl-prolyl cis-trans isomerase FKBP1A (Homo sapiens, UniProt P62942); experiment: Effective concentration determined was towards FK506 binding protein 12 by competitive binding assay using [3H]-dihydro FK-506 as radioligand
Sequence of Peptidyl-prolyl cis-trans isomerase FKBP1A (P62942 whole entry): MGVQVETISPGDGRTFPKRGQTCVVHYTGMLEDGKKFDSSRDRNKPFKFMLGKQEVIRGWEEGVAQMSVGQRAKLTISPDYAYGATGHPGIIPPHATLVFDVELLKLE

Work on `CC[C@@H]1/C=C(\C)C[C@H](C)C[C@H](OC)[C@H]2O[C@@](O)(C(=O)C(=O)N3CCCC[C@H]3C(=O)O[C@H](/C(C)=C/[C@@H]3CC[C@@H](OC(=O)Cc4ccccc4)[C@H](OC)C3)[C@H](C)[C@@H](O)CC1=O)[C@H](C)C[C@@H]2OC` yielded an IC50 [1] of 3.5 nM.

`CC[C@@H]1/C=C(\C)C[C@H](C)C[C@H](OC)[C@H]2O[C@@](O)(C(=O)C(=O)N3CCCC[C@H]3C(=O)O[C@H](/C(C)=C/[C@@H]3CC[C@@H](Oc4ccccc4)[C@H](OC)C3)[C@H](C)[C@@H](O)CC1=O)[C@H](C)C[C@@H]2OC` gave an EC50 [2] of 12 nM and an IC50 [1] of 5.4 nM.

Compound `CC[C@@H]1/C=C(\C)C[C@H](C)C[C@H](OC)[C@H]2O[C@@](O)(C(=O)C(=O)N3CCCC[C@H]3C(=O)O[C@H](/C(C)=C/[C@@H]3CC[C@@H](OCCCc4ccccc4)[C@H](OC)C3)[C@H](C)[C@@H](O)CC1=O)[C@H](C)C[C@@H]2OC` has an EC50 [2] of 32 nM and an IC50 [1] of 3.5 nM.

`CC[C@@H]1/C=C(\C)C[C@H](C)C[C@H](OC)[C@H]2O[C@@](O)(C(=O)C(=O)N3CCCC[C@H]3C(=O)O[C@H](/C(C)=C/[C@@H]3CC[C@@H](OCC(O)c4ccccc4)[C@H](OC)C3)[C@H](C)[C@@H](O)CC1=O)[C@H](C)C[C@@H]2OC` (some centres undefined) gave an IC50 [1] of 0.18 nM.

`C=C(CO[C@@H]1CC[C@@H](/C=C(\C)[C@H]2OC(=O)[C@@H]3CCCCN3C(=O)C(=O)[C@]3(O)O[C@H]([C@@H](OC)C[C@@H](C)C/C(C)=C/[C@@H](CC)C(=O)C[C@H](O)[C@H]2C)[C@@H](OC)C[C@H]3C)C[C@H]1OC)c1ccccc1` showed an IC50 [1] of 1 nM.

`CC[C@@H]1/C=C(\C)C[C@H](C)C[C@H](OC)[C@H]2O[C@@](O)(C(=O)C(=O)N3CCCC[C@H]3C(=O)O[C@H](/C(C)=C/[C@@H]3CC[C@@H](OCCO)[C@H](OC)C3)[C@H](C)[C@@H](O)CC1=O)[C@H](C)C[C@@H]2OC` was tested, and the IC50 [1] was 4.3 nM.

`CC[C@@H]1/C=C(\C)C[C@H](C)C[C@H](OC)[C@H]2O[C@@](O)(C(=O)C(=O)N3CCCC[C@H]3C(=O)O[C@H](/C(C)=C/[C@@H]3CC[C@@H](OCc4ccccc4)[C@H](OC)C3)[C@H](C)[C@@H](O)CC1=O)[C@H](C)C[C@@H]2OC` gave an EC50 [2] of 5.3 nM and an IC50 [1] of 3 nM.

`CC[C@@H]1/C=C(\C)C[C@H](C)C[C@H](OC)[C@H]2O[C@@](O)(C(=O)C(=O)N3CCCC[C@H]3C(=O)O[C@H](/C(C)=C/[C@@H]3CC[C@@H](OCCc4ccccc4)[C@H](OC)C3)[C@H](C)[C@@H](O)CC1=O)[C@H](C)C[C@@H]2OC` was tested, and the EC50 [2] was 9.2 nM and the IC50 [1] was 0.61 nM.

Compound `CC[C@@H]1/C=C(\C)C[C@H](C)C[C@H](OC)[C@H]2O[C@@](O)(C(=O)C(=O)N3CCCC[C@H]3C(=O)O[C@H](/C(C)=C/[C@@H]3CC[C@@H](OCC(=O)c4ccccc4)[C@H](OC)C3)[C@H](C)[C@@H](O)CC1=O)[C@H](C)C[C@@H]2OC` has an IC50 [1] of 0.27 nM.

`CC[C@@H]1/C=C(\C)C[C@H](C)C[C@H](OC)[C@H]2O[C@@](O)(C(=O)C(=O)N3CCCC[C@H]3C(=O)O[C@H](/C(C)=C/[C@@H]3CC[C@@H](O)[C@H](OC)C3)[C@H](C)[C@@H](O)CC1=O)[C@H](C)C[C@@H]2OC` [ASCOMYCIN] gave an IC50 [1] of 0.69 nM.
